Reference: patent publication US20250368649A1, “TETRAHYDROPYRIDOPYRIMIDINE PAN-KRAS INHIBITORS” (Mirati Therapeutics, Inc., priority 2022, published 2025)

Assays:
KRas G12D = KRas G12D (Homo sapiens, UniProt P01116, G12D); test: biochemical; details: Binding to KRas (IC50 nM) G12D, TR-FRET displacement, KRas G12D
KRas G12V = KRas G12V (Homo sapiens, UniProt P01116, G12V); test: biochemical; details: Binding to KRas (IC50 nM) G12V, TR-FRET displacement, KRas G12V
Chain of KRas G12V (P01116 1-169 isoform P01116-2 G12V): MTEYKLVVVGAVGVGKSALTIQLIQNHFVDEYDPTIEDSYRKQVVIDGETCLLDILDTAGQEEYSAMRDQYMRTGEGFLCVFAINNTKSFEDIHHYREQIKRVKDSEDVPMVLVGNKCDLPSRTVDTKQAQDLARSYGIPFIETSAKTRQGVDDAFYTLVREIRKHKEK

Chain of KRas G12D (P01116 1-169 isoform P01116-2 G12D): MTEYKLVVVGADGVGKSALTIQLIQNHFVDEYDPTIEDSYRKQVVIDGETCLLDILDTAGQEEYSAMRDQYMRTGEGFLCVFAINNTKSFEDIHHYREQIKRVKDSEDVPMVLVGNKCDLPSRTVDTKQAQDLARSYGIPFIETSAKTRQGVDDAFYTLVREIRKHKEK

Row | Compound | IC50 (KRas G12D) [nM] | IC50 (KRas G12V) [nM]
1 | CCc1cccc2cccc(N3CCc4c(nc(OCC5(CN(C)C)CC5)nc4N4CCCOC(CC)C4)C3)c12 (stereo not shown) [Example 663, 1-(1-(((4-(2-ethyl-1,4-oxazepan-4-yl)-7-(8-ethylnaphthalen-1-yl)-5,6,7,8-tetrahydropyrido[3,4-d]pyrimidin-2-yl)oxy)methyl)cyclopropyl)-N,N-dimethylmethanamine] | 2310 | 1420
2 | CCc1cccc2cccc(N3CCc4c(nc(OCC5(CN(C)C)CC5)nc4N4CCCOC(C)C4)C3)c12 (stereo not shown) [Example 667, 1-(1-(((7-(8-ethylnaphthalen-1-yl)-4-(2-methyl-1,4-oxazepan-4-yl)-5,6,7,8-tetrahydropyrido[3,4-d]pyrimidin-2-yl)oxy)methyl)cyclopropyl)-N,N-dimethylmethanamine] | 223 | 243
3 | CCc1cccc2cccc(N3CCc4c(nc(OCC5(CN(C)C)CC5)nc4N4CCCC(c5ccn(C)n5)C4)C3)c12 (stereo not shown) [Example 689, 1-(1-(((7-(8-ethylnaphthalen-1-yl)-4-(3-(1-methyl-1H-pyrazol-3-yl)piperidin-1-yl)-5,6,7,8-tetrahydropyrido[3,4-d]pyrimidin-2-yl)oxy)methyl)cyclopropyl)-N,N-dimethylmethanamine] | 7420 | 4310
4 | CCc1cccc2cccc(N3CCc4c(nc(OCC5(CN(C)C)CC5)nc4NCCc4nnc5ccccn45)C3)c12 [Example 572, N-(2-([1,2,4]triazolo[4,3-a]pyridin-3-yl)ethyl)-2-((1-((dimethylamino)methyl)cyclopropyl)methoxy)-7-(8-ethylnaphthalen-1-yl)-5,6,7,8-tetrahydropyrido[3,4-d]pyrimidin-4-amine] | 89400 | 4560
5 | CCc1cccc2cccc(N3CCc4c(nc(OCC5(CN(C)C)CC5)nc4N4CCOCC(C)C4)C3)c12 (stereo not shown) [Example 664, 1-(1-(((7-(8-ethylnaphthalen-1-yl)-4-(6-methyl-1,4-oxazepan-4-yl)-5,6,7,8-tetrahydropyrido[3,4-d]pyrimidin-2-yl)oxy)methyl)cyclopropyl)-N,N-dimethylmethanamine] | 254 | 317
6 | CCc1cccc2cccc(N3CCc4c(nc(OCC5(CN(C)C)CC5)nc4N4CCCC(c5ccon5)C4)C3)c12 (stereo not shown) [Example 681, 1-(1-(((7-(8-ethylnaphthalen-1-yl)-4-(3-(isoxazol-3-yl)piperidin-1-yl)-5,6,7,8-tetrahydropyrido[3,4-d]pyrimidin-2-yl)oxy)methyl)cyclopropyl)-N,N-dimethylmethanamine] | 3830 | 3220
7 | CCc1cccc2cccc(N3CCc4c(nc(OCC5(CN(C)C)CC5)nc4N4CCOCC(CC)C4)C3)c12 (stereo not shown) [Example 672, 1-(1-(((4-(6-ethyl-1,4-oxazepan-4-yl)-7-(8-ethylnaphthalen-1-yl)-5,6,7,8-tetrahydropyrido[3,4-d]pyrimidin-2-yl)oxy)methyl)cyclopropyl)-N,N-dimethylmethanamine] | 1280 | 1440
8 | CCc1cccc2cccc(N3CCc4c(nc(OCC5(CN(C)C)CC5)nc4N4CCCC(n5cccn5)C4)C3)c12 (stereo not shown) [Example 682, 1-(1-(((4-(3-(1H-pyrazol-1-yl)piperidin-1-yl)-7-(8-ethylnaphthalen-1-yl)-5,6,7,8-tetrahydropyrido[3,4-d]pyrimidin-2-yl)oxy)methyl)cyclopropyl)-N,N-dimethylmethanamine] | 1610 | 1760
9 | CCc1cccc2cccc(N3CCc4c(nc(OCC5(CN(C)C)CC5)nc4N(C)Cc4nncn4C)C3)c12 [Example 668, 2-((1-((dimethylamino)methyl)cyclopropyl)methoxy)-7-(8-ethylnaphthalen-1-yl)-N-methyl-N-((4-methyl-4H-1,2,4-triazol-3-yl)methyl)-5,6,7,8-tetrahydropyrido[3,4-d]pyrimidin-4-amine] | 8990 | 2050
10 | CCc1cccc2cccc(N3CCc4c(nc(OCC5(CN(C)C)CC5)nc4NCc4ncn(C(C)C)n4)C3)c12 [Example 673, 2-((1-((dimethylamino)methyl)cyclopropyl)methoxy)-7-(8-ethylnaphthalen-1-yl)-N-((1-isopropyl-1H-1,2,4-triazol-3-yl)methyl)-5,6,7,8-tetrahydropyrido[3,4-d]pyrimidin-4-amine] | 8420 | 2440
11 | CCc1cccc2cccc(N3CCc4c(nc(OCC5(CN(C)C)CC5)nc4NCCc4nncn4C(C)C)C3)c12 [Example 571, 2-((1-((dimethylamino)methyl)cyclopropyl)methoxy)-7-(8-ethylnaphthalen-1-yl)-N-(2-(4-isopropyl-4H-1,2,4-triazol-3-yl)ethyl)-5,6,7,8-tetrahydropyrido[3,4-d]pyrimidin-4-amine] | 75700 | 6720
12 | CCc1cccc2cccc(N3CCc4c(nc(OCC5(CN(C)C)CC5)nc4N4CCCC(c5c[nH]nn5)C4)C3)c12 (stereo not shown) [Example 679, 1-(1-(((4-(3-(1H-1,2,3-triazol-4-yl)piperidin-1-yl)-7-(8-ethylnaphthalen-1-yl)-5,6,7,8-tetrahydropyrido[3,4-d]pyrimidin-2-yl)oxy)methyl)cyclopropyl)-N,N-dimethylmethanamine] | 5890 | 3190
13 | CCc1cccc2cccc(N3CCc4c(nc(OCC5(CN(C)C)CC5)nc4N4CCCC(c5nccn5C)C4)C3)c12 (stereo not shown) [Example 692, 1-(1-(((7-(8-ethylnaphthalen-1-yl)-4-(3-(1-methyl-1H-imidazol-2-yl)piperidin-1-yl)-5,6,7,8-tetrahydropyrido[3,4-d]pyrimidin-2-yl)oxy)methyl)cyclopropyl)-N,N-dimethylmethanamine] | 16100 | 8850
14 | CCc1cccc2cccc(N3CCc4c(nc(OCC5(CN(C)C)CC5)nc4N4CCCC(c5nc(C)c(C)[nH]5)C4)C3)c12 (stereo not shown) [Example 687, 1-(1-(((4-(3-(4,5-dimethyl-1H-imidazol-2-yl)piperidin-1-yl)-7-(8-ethylnaphthalen-1-yl)-5,6,7,8-tetrahydropyrido[3,4-d]pyrimidin-2-yl)oxy)methyl)cyclopropyl)-N,N-dimethylmethanamine] | 10800 | 6230
15 | CCc1cccc2cccc(N3CCc4c(nc(OCC5(CN(C)C)CC5)nc4N4CCOCC(CO)C4)C3)c12 (stereo not shown) [Example 678, (4-(2-((1-((dimethylamino)methyl)cyclopropyl)methoxy)-7-(8-ethylnaphthalen-1-yl)-5,6,7,8-tetrahydropyrido[3,4-d]pyrimidin-4-yl)-1,4-oxazepan-6-yl)methanol] | 197 | 210
16 | CCc1cccc2cccc(N3CCc4c(nc(OCC5(CN(C)C)CC5)nc4N4CCCC(c5ncc[nH]5)C4)C3)c12 (stereo not shown) [Example 685, 1-(1-(((4-(3-(1H-imidazol-2-yl)piperidin-1-yl)-7-(8-ethylnaphthalen-1-yl)-5,6,7,8-tetrahydropyrido[3,4-d]pyrimidin-2-yl)oxy)methyl)cyclopropyl)-N,N-dimethylmethanamine] | 1650 | 1860
17 | CCc1cccc2cccc(N3CCc4c(nc(OCC5(CN(C)C)CC5)nc4NCc4nnc5n4CCCCC5)C3)c12 [Example 686, 2-((1-((dimethylamino)methyl)cyclopropyl)methoxy)-7-(8-ethylnaphthalen-1-yl)-N-((6,7,8,9-tetrahydro-5H-[1,2,4]triazolo[4,3-a]azepin-3-yl)methyl)-5,6,7,8-tetrahydropyrido[3,4-d]pyrimidin-4-amine] | 5250 | 4520
18 | CCc1cccc2cccc(N3CCc4c(nc(OCC5(CN(C)C)CC5)nc4N4CCCC(c5nc(=O)[nH][nH]5)C4)C3)c12 (stereo not shown) [Example 690, 5-(1-(2-((1-((dimethylamino)methyl)cyclopropyl)methoxy)-7-(8-ethylnaphthalen-1-yl)-5,6,7,8-tetrahydropyrido[3,4-d]pyrimidin-4-yl)piperidin-3-yl)-1,2-dihydro-3H-1,2,4-triazol-3-one] | 5440 | 1360
19 | CCc1cccc2cccc(N3CCc4c(nc(OCC5(CN(C)C)CC5)nc4N4CCOCC(O)C4)C3)c12 (stereo not shown) [Example 666, 4-(2-((1-((dimethylamino)methyl)cyclopropyl)methoxy)-7-(8-ethylnaphthalen-1-yl)-5,6,7,8-tetrahydropyrido[3,4-d]pyrimidin-4-yl)-1,4-oxazepan-6-ol] | 340 | 238
20 | CCc1cccc2cccc(N3CCc4c(nc(OCC5(CN(C)C)CC5)nc4N4CCCC(c5c[nH]cn5)C4)C3)c12 (stereo not shown) [Example 680, 1-(1-(((4-(3-(1H-imidazol-4-yl)piperidin-1-yl)-7-(8-ethylnaphthalen-1-yl)-5,6,7,8-tetrahydropyrido[3,4-d]pyrimidin-2-yl)oxy)methyl)cyclopropyl)-N,N-dimethylmethanamine] | 5490 | 3130
21 | CCc1cccc2cccc(N3CCc4c(nc(OCC5(CN(C)C)CC5)nc4N4CCCOCC4)C3)c12 [Example 669, 1-(1-(((7-(8-ethylnaphthalen-1-yl)-4-(1,4-oxazepan-4-yl)-5,6,7,8-tetrahydropyrido[3,4-d]pyrimidin-2-yl)oxy)methyl)cyclopropyl)-N,N-dimethylmethanamine] | 190 | 199
22 | CCc1cccc2cccc(N3CCc4c(nc(OCC5(CN(C)C)CC5)nc4NCC4(NC(=O)OC(C)(C)C)CCOC4)C3)c12 (stereo not shown) [Example 573, tert-butyl (3-(((2-((1-((dimethylamino)methyl)cyclopropyl)methoxy)-7-(8-ethylnaphthalen-1-yl)-5,6,7,8-tetrahydropyrido[3,4-d]pyrimidin-4-yl)amino)methyl)tetrahydrofuran-3-yl)carbamate] | 96000 | 7840
23 | CCc1cccc2cccc(N3CCc4c(nc(OCC5(CN(C)C)CC5)nc4NCc4nnc(C5CCOC5)[nH]4)C3)c12 (stereo not shown) [Example 691, 2-((1-((dimethylamino)methyl)cyclopropyl)methoxy)-7-(8-ethylnaphthalen-1-yl)-N-((5-(tetrahydrofuran-3-yl)-4H-1,2,4-triazol-3-yl)methyl)-5,6,7,8-tetrahydropyrido[3,4-d]pyrimidin-4-amine] | 7300 | 5300
